# Experimental data reported in patent publication US20080261936A1, “METHODS OF REDUCING THE BODY WEIGHT OF A SUBJECT BY ADMINISTERING A FATTY ACID ESTER OF AN ESTROGEN OR ESTROGEN DERIVATIVE IN AN OIL AND COMPOSITIONS CONTAINING THE SAME” (Manhattan Pharmaceuticals, Inc., priority 2006, published 2008).
# Several values for one entry are separate records, joined by “and”; a condition that tells them apart may be missing. Equal entries are not always repeated.
# Columns and labels:
# [1] = Oil evaluation: solubility behavior of oleoyl-estrone, 200 mg/g in single oils; format: physicochemical
# Description: An oil evaluation was done to determine the solubility behavior of oleoyl-estrone as a function of type of oil, concentration and temperature. The solubility of oleoyl-estrone was evaluated at concentrations of 60 mg/g and 200 mg/g. […]
# [2] = Compatibility/stability of oleoyl-estrone in oil systems (appearance/color, potency, related substances); format: physicochemical
# Description: The compatibility of oleoyl-estrone in various oil systems was also assessed. The respective stability of oleoyl-estrone in various oils was assessed following storage at (A) 25° C./60% and relative humidity (RH), (B) 40° C./75% RH, (C) 50° C. and (D) 60° C. in canola oil, safflower oil, Captex and a 2:1 Captex: Labrafil mixture. The stability test methods include appearance/color, potency, and related substances (e.g. impurities or degradant in the oleoyl-estrone and oil mixture).
# [3] = 200 mg/g in Captex 300-6C at 40° C.
# [4] = 200 mg/g in Captex 300 EP at 40° C.
# [5] = 200 mg/g in Labrafil 1944 CS at 40° C.
# [6] = 200 mg/g in Safflower at 40° C.
# [7] = in 2:1 CAPTEX:LABRAFIL, One Week 25° C./60% RH
# [8] = in 2:1 CAPTEX:LABRAFIL, One Week 40° C./75% RH
# [9] = in 2:1 CAPTEX:LABRAFIL, One Week 50° C.
# [10] = in 2:1 CAPTEX:LABRAFIL, One Week 60° C.
# [11] = in 2:1 CAPTEX:LABRAFIL, Time Zero
# [12] = in 2:1 CAPTEX:LABRAFIL, Two Weeks 25° C./60% RH
# [13] = in 2:1 CAPTEX:LABRAFIL, Two Weeks 40° C./75% RH
# [14] = in CANOLA, One Week 25° C./60% RH
# [15] = in CANOLA, One Week 40° C./75% RH
# [16] = in CANOLA, Three Weeks 25° C./60% RH
# [17] = in CANOLA, Three Weeks 40° C./75% RH
compound,measurement,setting,value
"CCCCCCCC/C=C\CCCCCCCC(=O)Oc1ccc2c(c1)CC[C@@H]1[C@@H]2CC[C@]2(C)C(=O)CC[C@@H]12 [oleoyl-estrone, [3(Z)]-3-[(1-oxo-9-octadecenyl)oxy]-estra-1,3,5(10)-trien-17-one]",Solubility Cycled to 22° C. for 24 hr prior to 5° C. cycle for 96 hr,[1]; 200 mg/g in Canola,Dissolved
same,Solubility After 24 hr,[1]; 200 mg/g in Canola at 40° C.,Dissolved
same,Solubility After 96 hr,[1]; 200 mg/g in Canola at 40° C.,Dissolved
same,Solubility Cycled to 22° C. for 24 hr prior to 5° C. cycle for 96 hr,[1]; 200 mg/g in Captex 300-6C,Dissolved
same,Solubility After 24 hr,[1]; [3],Dissolved
same,Solubility After 96 hr,[1]; [3],Dissolved
same,Solubility Cycled to 22° C. for 24 hr prior to 5° C. cycle for 96 hr,[1]; 200 mg/g in Captex 300 EP,Dissolved
same,Solubility After 24 hr,[1]; [4],Dissolved
same,Solubility After 96 hr,[1]; [4],Dissolved
same,Solubility Cycled to 22° C. for 24 hr prior to 5° C. cycle for 96 hr,[1]; 200 mg/g in Corn,Precipitated at 5 °C after 72 hr
same,Solubility After 24 hr,[1]; 200 mg/g in Corn at 40° C.,Dissolved
same,Solubility After 96 hr,[1]; 200 mg/g in Corn at 40° C.,Dissolved
same,Solubility Cycled to 22° C. for 24 hr prior to 5° C. cycle for 96 hr,[1]; 200 mg/g in Labrafac,Precipitated at 5 °C after 4 hr
same,Solubility After 24 hr,[1]; 200 mg/g in Labrafac at 40° C.,Dissolved
same,Solubility After 96 hr,[1]; 200 mg/g in Labrafac at 40° C.,Dissolved
same,Solubility Cycled to 22° C. for 24 hr prior to 5° C. cycle for 96 hr,[1]; 200 mg/g in Labrafil 1944 CS,Precipitated at 5 °C after 4 hr
same,Solubility After 24 hr,[1]; [5],Dissolved
same,Solubility After 96 hr,[1]; [5],Dissolved
same,Solubility Cycled to 22° C. for 24 hr prior to 5° C. cycle for 96 hr,[1]; 200 mg/g in Labrafil M 125CS,Precipitated at 5 °C after 24 hr
same,Solubility After 96 hr,[1]; 200 mg/g in Labrafil M 125CS at 40° C.,Dissolved
same,Solubility Cycled to 22° C. for 24 hr prior to 5° C. cycle for 96 hr,[1]; 200 mg/g in Labrasol,Precipitated at RT not tested
same,Solubility After 24 hr,[1]; 200 mg/g in Labrasol at 40° C.,Dissolved
same,Solubility After 96 hr,[1]; 200 mg/g in Labrasol at 40° C.,Dissolved
same,Solubility Cycled to 22° C. for 24 hr prior to 5° C. cycle for 96 hr,[1]; 200 mg/g in Olive,Precipitated at 5 °C after 4 hr
same,Solubility After 24 hr,[1]; 200 mg/g in Olive at 40° C.,Dissolved
same,Solubility After 96 hr,[1]; 200 mg/g in Olive at 40° C.,Dissolved
same,Solubility Cycled to 22° C. for 24 hr prior to 5° C. cycle for 96 hr,[1]; 200 mg/g in Safflower,Dissolved
same,Solubility After 24 hr,[1]; [6],Dissolved
same,Solubility After 96 hr,[1]; [6],Dissolved
same,Solubility Cycled to 22° C. for 24 hr prior to 5° C. cycle for 96 hr,[1]; 200 mg/g in Sesame,Precipitated at 5 °C after 5 hr
same,Solubility After 24 hr,[1]; 200 mg/g in Sesame at 40° C.,Dissolved
same,Solubility After 96 hr,[1]; 200 mg/g in Sesame at 40° C.,Dissolved
same,Solubility Cycled to 22° C. for 24 hr prior to 5° C. cycle for 96 hr,[1]; 200 mg/g in Soybean,Dissolved
same,Solubility After 24 hr,[1]; 200 mg/g in Soybean at 40° C.,Dissolved
same,Solubility After 96 hr,[1]; 200 mg/g in Soybean at 40° C.,Dissolved
same,Solubility and thermal stability in single oils (summary),"[1]; in safflower oil, soybean oil, canola oil and the medium chain triglycerides",soluble and thermally stable
same,Mean Purity Assay,[2]; [7],101.9%
same,Purity Assay,[2]; [7],100.4% and 103.3%
same,Mean Purity Assay,[2]; [8],104.4%
same,Purity Assay,[2]; [8],102.2% and 106.6%
same,Mean Purity Assay,[2]; [9],106.8%
same,Purity Assay,[2]; [9],106.6% and 107.0%
same,Mean Purity Assay,[2]; [10],98.2%
same,Purity Assay,[2]; [10],98.4% and 97.9%
same,Mean Purity Assay,"[2]; in 2:1 CAPTEX:LABRAFIL, Three Weeks 25° C./60% RH",102.1%
same,Mean Purity Assay,"[2]; in 2:1 CAPTEX:LABRAFIL, Three Weeks 40° C./75% RH",99.7%
same,Mean Purity Assay,"[2]; in 2:1 CAPTEX:LABRAFIL, Three Weeks 50° C.",103.8%
same,Mean Purity Assay,"[2]; in 2:1 CAPTEX:LABRAFIL, Three Weeks 60° C.",102.1%
same,Mean Purity Assay,[2]; [11],104.8%
same,Purity Assay,[2]; [11],105.1% and 104.9% and 103.6% and 105.2%
same,Mean Purity Assay,[2]; [12],102.9%
same,Purity Assay,[2]; [12],101.3% and 104.4%
same,Mean Purity Assay,[2]; [13],104.5%
same,Purity Assay,[2]; [13],107.3% and 101.7%
same,Mean Purity Assay,"[2]; in 2:1 CAPTEX:LABRAFIL, Two Weeks 50° C.",104.0%
same,Mean Purity Assay,"[2]; in 2:1 CAPTEX:LABRAFIL, Two Weeks 60° C.",106.2%
same,Mean Purity Assay,[2]; [14],96.5%
same,Purity Assay,[2]; [14],96.3% and 96.7%
same,Mean Purity Assay,[2]; [15],95.8%
same,Purity Assay,[2]; [15],95.2% and 96.4%
same,Mean Purity Assay,"[2]; in CANOLA, One Week 50° C.",99.8%
same,Purity Assay,"[2]; in CANOLA, One Week 50° C.",96.3% and 103.3%
same,Mean Purity Assay,"[2]; in CANOLA, One Week 60° C.",98.2%
same,Purity Assay,"[2]; in CANOLA, One Week 60° C.",97.8% and 98.5%
same,Mean Purity Assay,[2]; [16],96.5%
same,Purity Assay,[2]; [16],95.3% and 97.7%
same,Mean Purity Assay,[2]; [17],98.4%
same,Purity Assay,[2]; [17],94.6% and 102.2%
